Experimental data reported in ChEMBL document CHEMBL1201862, “PubChem BioAssay data set” (2004).
Structures can show the parent of a compound that is named as a salt. The source made the active and inactive calls.

Assays:
Vero [1] = experiment: cells; format: functional, cell-based; settings: Chlorocebus sabaeus
HEK293 = experiment: cells; format: functional, cell-based; settings: Homo sapiens
[2] = target: T1, Nuclear receptor subfamily 0 group B member 1 (Homo sapiens, UniProt P51843); experiment: Luminescence-based cell-based high throughput dose response assay for inhibitors of the orphan nuclear receptor subfamily 0, group B, member 1 (DAX1; NR0B1). [Related pubchem assays (depositor defined):AID504766, AID504790]; format: functional
T1 sequence (P51843 whole entry): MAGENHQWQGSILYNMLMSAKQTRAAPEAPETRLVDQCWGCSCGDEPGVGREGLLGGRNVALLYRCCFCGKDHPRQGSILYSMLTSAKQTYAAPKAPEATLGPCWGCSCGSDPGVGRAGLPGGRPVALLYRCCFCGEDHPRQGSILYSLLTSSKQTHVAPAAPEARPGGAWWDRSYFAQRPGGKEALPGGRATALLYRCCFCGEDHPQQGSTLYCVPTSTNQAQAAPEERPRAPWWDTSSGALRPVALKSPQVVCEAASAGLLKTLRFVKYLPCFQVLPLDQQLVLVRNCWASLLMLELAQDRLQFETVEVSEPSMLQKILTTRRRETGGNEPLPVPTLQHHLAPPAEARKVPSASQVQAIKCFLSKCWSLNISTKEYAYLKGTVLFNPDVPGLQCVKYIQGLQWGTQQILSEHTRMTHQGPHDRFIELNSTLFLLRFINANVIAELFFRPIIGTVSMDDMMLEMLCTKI

CAAX prenyl protease 1 = CAAX prenyl protease 1 (Saccharomyces cerevisiae S288c, UniProt P47154); experiment: Ste24 protease inhibitors, dose response, biochemical, S. cerevisiae, plate reader, cherry-pick (AID 488815)
Sequence of CAAX prenyl protease 1 (P47154 whole entry): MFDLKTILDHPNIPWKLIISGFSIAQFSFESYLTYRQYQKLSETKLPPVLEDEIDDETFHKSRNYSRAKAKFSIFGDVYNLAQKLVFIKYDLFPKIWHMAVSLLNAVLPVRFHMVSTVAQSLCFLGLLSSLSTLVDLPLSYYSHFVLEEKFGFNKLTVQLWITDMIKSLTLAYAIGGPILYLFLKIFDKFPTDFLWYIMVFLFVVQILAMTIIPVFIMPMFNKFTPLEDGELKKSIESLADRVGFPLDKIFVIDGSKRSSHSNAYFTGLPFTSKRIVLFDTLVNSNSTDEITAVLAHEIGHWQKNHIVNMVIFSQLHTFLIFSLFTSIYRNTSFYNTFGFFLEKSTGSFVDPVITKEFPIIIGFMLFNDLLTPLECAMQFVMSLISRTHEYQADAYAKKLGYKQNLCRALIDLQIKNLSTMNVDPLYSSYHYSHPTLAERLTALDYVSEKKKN

CAAX prenyl protease 2 = target: T2, CAAX prenyl protease 2 (Saccharomyces cerevisiae S288c, UniProt Q03530); format: biochemical
T2 sequence (Q03530 whole entry): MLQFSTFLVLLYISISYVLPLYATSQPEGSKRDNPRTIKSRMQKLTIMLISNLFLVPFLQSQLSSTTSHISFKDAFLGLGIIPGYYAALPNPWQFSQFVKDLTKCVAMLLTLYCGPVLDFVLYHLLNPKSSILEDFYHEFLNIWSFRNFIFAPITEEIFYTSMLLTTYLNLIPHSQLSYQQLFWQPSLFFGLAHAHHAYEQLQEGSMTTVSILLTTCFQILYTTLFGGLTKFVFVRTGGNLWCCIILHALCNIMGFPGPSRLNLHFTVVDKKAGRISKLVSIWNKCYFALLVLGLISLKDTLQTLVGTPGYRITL

Trypsin = Trypsin (Sus scrofa, UniProt P00761); experiment: porcine trypsin inhibitors, dose response, selectivity assay for Rce1 protease inhibitor project, biochemical, quenched peptide fluorescence, cherry-pick (AID 488789)
Sequence of Trypsin (P00761 whole entry): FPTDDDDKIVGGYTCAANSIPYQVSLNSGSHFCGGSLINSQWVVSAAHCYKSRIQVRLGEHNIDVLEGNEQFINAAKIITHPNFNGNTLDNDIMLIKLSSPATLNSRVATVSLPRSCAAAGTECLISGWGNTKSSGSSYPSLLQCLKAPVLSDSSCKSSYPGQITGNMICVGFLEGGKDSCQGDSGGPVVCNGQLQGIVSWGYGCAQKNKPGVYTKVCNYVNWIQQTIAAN

[3] = cytotoxicity in HMLE control line with eGFP shRNA, dose response, counter-screen for HMLE_sh_ECad selective toxicity project, cell-based, HMLE_sh_eGFP, luminescence (AID 463074); format: functional, Homo sapiens;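 note: HMLE human mammary epithelial cells expressing control shRNA against eGFP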
[4] = Luminescence Cell-Based Dose Retest to Confirm Inhibitors of Cancer Stem Cells. [Related pubchem assays (depositor defined):AID2717, AID2721]; format: functional; settings: Homo sapiens
[5] = cytotoxicity toward NIH3T3 fibroblasts, dose response, counter-screen, cell-based, ATP luminescence, mouse fibroblasts (AID 2010); format: functional;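 note: cells exposed to compound for about 90 hours before reading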
[6] = inhibitors of intracellular T. cruzi replication, confirmation, NIH3T3 host cells, beta-gal luminescence (AID 2044); format: functional, cell-based;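 note: intracellular parasites grown in NIH/3T3 mouse fibroblasts as host cells; luminescent beta-galactosidase reporter signal from transgenic T. cruzi replicating inside host cells; inhibitors lower the luminescence signal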
[7] = cytotoxicity in MIN6 insulinoma cells, dose response, cytotoxicity control, cell-based, mouse insulinoma (AID 2122); format: functional;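 note: confirmatory high-throughput counterscreen run to flag cytotoxic compounds; mouse MIN-6 beta cells carrying an insulin promoter eGFP reporter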
[8] = insulin promoter down-regulators in MIN6 cells, imaging, high-content screening, mouse beta cells (AID 1628); format: functional
[9] = target: T3, Tyrosine-protein phosphatase non-receptor type 7 (Homo sapiens, UniProt P35236); format: functional
T3 sequence (P35236 whole entry): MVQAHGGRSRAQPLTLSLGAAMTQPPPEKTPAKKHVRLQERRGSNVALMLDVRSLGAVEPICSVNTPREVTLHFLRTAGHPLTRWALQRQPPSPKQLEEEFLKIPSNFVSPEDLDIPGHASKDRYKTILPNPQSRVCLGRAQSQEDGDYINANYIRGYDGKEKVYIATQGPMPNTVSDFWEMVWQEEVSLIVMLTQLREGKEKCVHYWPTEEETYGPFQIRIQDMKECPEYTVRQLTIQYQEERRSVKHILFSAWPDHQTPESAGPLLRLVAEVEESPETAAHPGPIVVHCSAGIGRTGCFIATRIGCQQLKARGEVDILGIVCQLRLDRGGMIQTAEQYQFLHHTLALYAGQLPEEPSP

[10] = target: T4, Dual specificity protein phosphatase 6 (Rattus norvegicus, UniProt Q64346)
T4 sequence (Q64346 whole entry): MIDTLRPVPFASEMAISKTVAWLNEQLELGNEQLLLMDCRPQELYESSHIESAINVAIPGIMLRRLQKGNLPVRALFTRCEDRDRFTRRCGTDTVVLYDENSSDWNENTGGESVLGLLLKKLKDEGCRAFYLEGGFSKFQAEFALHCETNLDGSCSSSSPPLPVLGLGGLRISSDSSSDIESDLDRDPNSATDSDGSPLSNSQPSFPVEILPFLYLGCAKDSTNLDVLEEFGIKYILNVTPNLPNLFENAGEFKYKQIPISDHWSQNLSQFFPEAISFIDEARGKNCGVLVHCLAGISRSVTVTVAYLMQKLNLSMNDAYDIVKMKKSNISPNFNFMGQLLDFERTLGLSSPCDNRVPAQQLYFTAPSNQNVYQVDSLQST

[11] = target: T4, Dual specificity protein phosphatase 6; format: functional
[12] = target: T5, E3 ubiquitin-protein ligase XIAP (Homo sapiens, UniProt P98170); experiment: Counter Screen using XIAP-Bir3 for Chemical Antagonists of Bir1/2 domains of IAP-family anti-apoptotic proteins. [Related pubchem assays (depositor defined):AID1018, AID1449, AID1514, AID1638, AID1749, AID1750, AID488957, AID488963]
T5 sequence (P98170 whole entry): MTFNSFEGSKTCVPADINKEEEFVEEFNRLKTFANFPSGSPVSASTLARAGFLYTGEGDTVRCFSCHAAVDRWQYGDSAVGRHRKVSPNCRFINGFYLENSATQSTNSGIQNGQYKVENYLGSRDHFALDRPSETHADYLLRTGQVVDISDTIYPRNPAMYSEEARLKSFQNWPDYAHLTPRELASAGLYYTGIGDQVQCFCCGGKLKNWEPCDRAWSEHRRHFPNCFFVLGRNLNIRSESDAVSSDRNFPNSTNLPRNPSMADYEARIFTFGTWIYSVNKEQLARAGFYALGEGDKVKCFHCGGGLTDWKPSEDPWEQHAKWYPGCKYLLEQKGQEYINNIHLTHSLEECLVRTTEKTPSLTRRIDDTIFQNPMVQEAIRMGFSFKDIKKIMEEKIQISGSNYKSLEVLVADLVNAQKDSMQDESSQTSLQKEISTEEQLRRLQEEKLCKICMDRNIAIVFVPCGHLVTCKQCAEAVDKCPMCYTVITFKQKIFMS

[13] = target: Glyceraldehyde-3-phosphate dehydrogenase (Homo sapiens, UniProt P04406)
Sequence of Glyceraldehyde-3-phosphate dehydrogenase (P04406 whole entry): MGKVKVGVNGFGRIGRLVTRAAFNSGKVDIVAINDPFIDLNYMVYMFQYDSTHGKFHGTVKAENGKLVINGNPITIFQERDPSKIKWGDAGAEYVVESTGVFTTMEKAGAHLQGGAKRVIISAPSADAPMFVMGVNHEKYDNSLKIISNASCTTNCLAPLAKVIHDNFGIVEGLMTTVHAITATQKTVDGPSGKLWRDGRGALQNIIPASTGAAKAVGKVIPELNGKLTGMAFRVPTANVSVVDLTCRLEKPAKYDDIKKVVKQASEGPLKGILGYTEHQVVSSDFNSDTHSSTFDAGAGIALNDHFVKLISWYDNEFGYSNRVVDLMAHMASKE

[14] = target: T5, E3 ubiquitin-protein ligase XIAP; experiment: XIAP antagonists, biochemical, IAP family, fluorescence polarization (AID 1018); format: functional
[15] = target: Glucose-6-phosphate 1-dehydrogenase (Homo sapiens, UniProt P11413); experiment: human G6PD enzyme inhibitors, dose response, selectivity assay for P. falciparum G6PD inhibitor project, biochemical, fluorescence (AID 504792); format: functional
Escherichia coli [16] = experiment: microbe, parasite or virus in culture
Escherichia coli [17] = experiment: microbe, parasite or virus in culture; remark: listed apart in the source
Streptococcus = experiment: Group A Streptococcus viability loss, dose response, counter-screen for streptokinase expression inhibitor project, luminescence, BacTiterGlo (AID 1915); format: functional, organism-based;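 note: potency for reduction of bacterial viability or growth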
[18] = target: T6, Rac GTPase-activating protein 1 (Homo sapiens, UniProt Q9H0H5); experiment: MgcRacGAP GTPase-activating activity inhibitors, confirmation, biochemical, ADP Hunter fluorescence, primary and confirmatory (AID 624330); format: functional
T6 sequence (Q9H0H5 whole entry): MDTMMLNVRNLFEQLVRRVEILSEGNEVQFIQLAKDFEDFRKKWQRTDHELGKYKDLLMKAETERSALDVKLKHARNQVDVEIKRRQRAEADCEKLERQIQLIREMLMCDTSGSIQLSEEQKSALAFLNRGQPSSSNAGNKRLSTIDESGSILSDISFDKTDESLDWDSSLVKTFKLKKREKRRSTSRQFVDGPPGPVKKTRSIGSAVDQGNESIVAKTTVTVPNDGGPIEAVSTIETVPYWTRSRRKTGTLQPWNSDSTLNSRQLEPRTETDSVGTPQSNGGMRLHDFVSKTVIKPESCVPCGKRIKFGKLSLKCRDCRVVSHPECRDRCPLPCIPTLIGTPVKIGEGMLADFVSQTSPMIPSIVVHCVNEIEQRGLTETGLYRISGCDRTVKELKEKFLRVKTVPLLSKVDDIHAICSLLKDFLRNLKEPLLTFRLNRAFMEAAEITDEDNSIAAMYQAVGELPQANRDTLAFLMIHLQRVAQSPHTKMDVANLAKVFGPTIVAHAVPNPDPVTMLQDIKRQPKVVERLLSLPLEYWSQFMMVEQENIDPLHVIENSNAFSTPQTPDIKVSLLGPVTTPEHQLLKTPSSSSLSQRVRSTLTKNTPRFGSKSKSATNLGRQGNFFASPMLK

[19] = target: 1-phosphatidylinositol 4,5-bisphosphate phosphodiesterase gamma-1 (Homo sapiens, UniProt P19174); experiment: Counterscreen for inhibitors of phospholipase C isozymes (PLC-B3): Fluorescence-based biochemical high throughput dose response assay to identify inhibitors of phospholipase C isozymes (PLC-gamma1).
Sequence of 1-phosphatidylinositol 4,5-bisphosphate phosphodiesterase gamma-1 (P19174 whole entry): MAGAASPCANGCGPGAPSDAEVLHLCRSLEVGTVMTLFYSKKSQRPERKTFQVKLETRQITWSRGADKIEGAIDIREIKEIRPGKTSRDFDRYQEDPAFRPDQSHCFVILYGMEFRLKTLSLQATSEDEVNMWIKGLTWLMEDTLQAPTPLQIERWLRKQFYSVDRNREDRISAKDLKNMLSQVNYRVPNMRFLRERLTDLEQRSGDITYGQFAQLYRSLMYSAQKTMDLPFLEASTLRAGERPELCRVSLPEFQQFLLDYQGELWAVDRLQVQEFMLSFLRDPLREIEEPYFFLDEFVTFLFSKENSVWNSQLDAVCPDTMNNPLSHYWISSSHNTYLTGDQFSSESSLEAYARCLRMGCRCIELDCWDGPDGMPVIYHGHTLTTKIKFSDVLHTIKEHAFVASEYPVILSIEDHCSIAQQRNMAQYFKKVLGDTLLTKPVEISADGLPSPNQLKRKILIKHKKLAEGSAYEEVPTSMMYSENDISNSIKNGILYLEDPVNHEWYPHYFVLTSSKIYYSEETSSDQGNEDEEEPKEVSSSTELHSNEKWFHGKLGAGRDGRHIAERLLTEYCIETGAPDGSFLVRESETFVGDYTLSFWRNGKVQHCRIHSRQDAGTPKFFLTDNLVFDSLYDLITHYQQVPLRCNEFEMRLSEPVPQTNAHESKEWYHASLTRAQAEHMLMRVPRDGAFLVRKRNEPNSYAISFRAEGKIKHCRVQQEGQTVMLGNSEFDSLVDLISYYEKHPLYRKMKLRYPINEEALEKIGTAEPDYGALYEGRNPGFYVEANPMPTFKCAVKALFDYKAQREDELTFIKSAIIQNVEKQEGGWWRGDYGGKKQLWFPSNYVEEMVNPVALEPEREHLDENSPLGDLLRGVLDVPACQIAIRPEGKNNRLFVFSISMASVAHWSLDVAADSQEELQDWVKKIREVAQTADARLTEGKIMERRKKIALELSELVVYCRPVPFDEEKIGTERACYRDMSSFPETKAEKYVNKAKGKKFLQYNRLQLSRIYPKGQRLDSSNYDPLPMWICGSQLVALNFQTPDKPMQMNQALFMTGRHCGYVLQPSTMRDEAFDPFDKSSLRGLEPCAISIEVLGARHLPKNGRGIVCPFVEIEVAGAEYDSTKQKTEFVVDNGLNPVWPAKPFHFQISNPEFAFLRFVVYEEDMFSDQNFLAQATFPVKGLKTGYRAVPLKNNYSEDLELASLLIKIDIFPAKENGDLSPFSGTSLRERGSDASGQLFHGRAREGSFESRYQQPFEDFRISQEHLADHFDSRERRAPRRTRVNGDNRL

[20] = target: 1-phosphatidylinositol 4,5-bisphosphate phosphodiesterase beta-3 (Homo sapiens, UniProt Q01970); experiment: Fluorescence-based biochemical high throughput dose response assay to identify inhibitors of phospholipase C isozymes (PLC-B3).
Sequence of 1-phosphatidylinositol 4,5-bisphosphate phosphodiesterase beta-3 (Q01970 whole entry): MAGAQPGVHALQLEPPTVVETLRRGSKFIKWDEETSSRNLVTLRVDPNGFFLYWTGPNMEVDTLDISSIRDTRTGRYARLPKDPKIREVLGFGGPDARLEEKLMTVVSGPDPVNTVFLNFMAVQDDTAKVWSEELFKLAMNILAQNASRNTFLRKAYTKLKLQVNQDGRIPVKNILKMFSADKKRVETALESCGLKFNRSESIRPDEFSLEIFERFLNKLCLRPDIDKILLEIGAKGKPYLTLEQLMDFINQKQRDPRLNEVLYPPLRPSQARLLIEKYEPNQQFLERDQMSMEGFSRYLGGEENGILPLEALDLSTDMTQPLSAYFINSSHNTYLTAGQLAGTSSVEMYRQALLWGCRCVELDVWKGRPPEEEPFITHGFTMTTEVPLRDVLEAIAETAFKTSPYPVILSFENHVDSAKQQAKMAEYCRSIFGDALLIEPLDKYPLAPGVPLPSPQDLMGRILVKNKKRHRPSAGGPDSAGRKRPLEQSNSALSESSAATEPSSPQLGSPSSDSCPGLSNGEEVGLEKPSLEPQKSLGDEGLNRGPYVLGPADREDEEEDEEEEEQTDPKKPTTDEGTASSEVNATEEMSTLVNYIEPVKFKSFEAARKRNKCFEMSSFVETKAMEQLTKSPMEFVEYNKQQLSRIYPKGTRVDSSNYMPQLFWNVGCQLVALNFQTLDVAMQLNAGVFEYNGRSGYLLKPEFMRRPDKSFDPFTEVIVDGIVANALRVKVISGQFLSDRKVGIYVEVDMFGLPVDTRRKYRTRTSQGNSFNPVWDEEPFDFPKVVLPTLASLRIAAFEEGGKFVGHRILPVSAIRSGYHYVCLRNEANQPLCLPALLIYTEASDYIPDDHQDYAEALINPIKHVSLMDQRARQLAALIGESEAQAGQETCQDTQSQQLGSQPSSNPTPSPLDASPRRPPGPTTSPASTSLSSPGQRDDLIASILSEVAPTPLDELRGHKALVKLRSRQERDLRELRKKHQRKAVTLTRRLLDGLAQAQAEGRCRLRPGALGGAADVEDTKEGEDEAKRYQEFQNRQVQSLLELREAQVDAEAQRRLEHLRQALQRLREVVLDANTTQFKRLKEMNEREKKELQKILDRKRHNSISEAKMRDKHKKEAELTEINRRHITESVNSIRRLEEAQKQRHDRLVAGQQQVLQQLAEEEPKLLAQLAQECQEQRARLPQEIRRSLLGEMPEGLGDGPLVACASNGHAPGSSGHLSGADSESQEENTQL

[21] = enhancers of respiration in Yfh1-depleted yeast, dose response, Friedreich's ataxia, plus single-dose screen (AID 1465); format: functional;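 note: yeast depleted of Yfh1p frataxin homolog grown on glycerol needing respiration; WST-1 tetrazolium dye reduction as measure of cellular dehydrogenase metabolic activity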
NS3 = NS3 (Hepatitis C virus, UniProt A3EZJ3); experiment: PubChem AID 2173; set-up: species or system Hepacivirus hominis
Sequence of NS3 (A3EZJ3 whole entry): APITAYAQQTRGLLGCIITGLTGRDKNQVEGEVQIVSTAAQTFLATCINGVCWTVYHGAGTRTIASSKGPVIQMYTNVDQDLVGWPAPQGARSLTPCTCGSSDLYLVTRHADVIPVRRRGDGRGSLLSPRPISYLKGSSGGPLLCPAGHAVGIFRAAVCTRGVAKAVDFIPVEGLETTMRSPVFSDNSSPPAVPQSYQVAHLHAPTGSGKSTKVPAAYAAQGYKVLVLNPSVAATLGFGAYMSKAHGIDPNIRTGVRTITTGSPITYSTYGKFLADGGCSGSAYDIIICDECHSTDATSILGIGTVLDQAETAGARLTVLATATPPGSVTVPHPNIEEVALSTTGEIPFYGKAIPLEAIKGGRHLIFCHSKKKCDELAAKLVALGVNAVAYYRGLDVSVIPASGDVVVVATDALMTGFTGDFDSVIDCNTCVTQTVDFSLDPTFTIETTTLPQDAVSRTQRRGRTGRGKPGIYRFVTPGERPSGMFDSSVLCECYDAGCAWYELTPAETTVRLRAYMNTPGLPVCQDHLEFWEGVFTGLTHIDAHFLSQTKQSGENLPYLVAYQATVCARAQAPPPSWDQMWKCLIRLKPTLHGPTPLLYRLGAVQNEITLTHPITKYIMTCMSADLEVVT

[22] = test system: Streptococcus sp. 'group A'; experiment: growth inhibition of control SK(-) GAS strain, dose response, counter-screen for streptokinase expression inhibitor project, luminescence, kanamycin, BacTiterGlo, confirmation (AID 1900); format: functional, organism-based
Vero [23] = experiment: cells; format: functional; settings: Chlorocebus sabaeus
[24] = human group III sPLA2 inhibitors, dose response, biochemical, QFRET, IC50 (AID 743457);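 note: green fluorescence rise as the enzyme cleaves BODIPY PC-A2 in liposomes; potency for inhibition of the enzyme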
[25] = target: T7, Short transient receptor potential channel 4 (Mus musculus, UniProt Q9QUQ5); experiment: mouse TRPC4 channel activators, dose response, cell-based, HEK293 TRPC4/mu-opioid, Fluo-4 calcium (AID 434937); format: functional
T7 sequence (Q9QUQ5 whole entry): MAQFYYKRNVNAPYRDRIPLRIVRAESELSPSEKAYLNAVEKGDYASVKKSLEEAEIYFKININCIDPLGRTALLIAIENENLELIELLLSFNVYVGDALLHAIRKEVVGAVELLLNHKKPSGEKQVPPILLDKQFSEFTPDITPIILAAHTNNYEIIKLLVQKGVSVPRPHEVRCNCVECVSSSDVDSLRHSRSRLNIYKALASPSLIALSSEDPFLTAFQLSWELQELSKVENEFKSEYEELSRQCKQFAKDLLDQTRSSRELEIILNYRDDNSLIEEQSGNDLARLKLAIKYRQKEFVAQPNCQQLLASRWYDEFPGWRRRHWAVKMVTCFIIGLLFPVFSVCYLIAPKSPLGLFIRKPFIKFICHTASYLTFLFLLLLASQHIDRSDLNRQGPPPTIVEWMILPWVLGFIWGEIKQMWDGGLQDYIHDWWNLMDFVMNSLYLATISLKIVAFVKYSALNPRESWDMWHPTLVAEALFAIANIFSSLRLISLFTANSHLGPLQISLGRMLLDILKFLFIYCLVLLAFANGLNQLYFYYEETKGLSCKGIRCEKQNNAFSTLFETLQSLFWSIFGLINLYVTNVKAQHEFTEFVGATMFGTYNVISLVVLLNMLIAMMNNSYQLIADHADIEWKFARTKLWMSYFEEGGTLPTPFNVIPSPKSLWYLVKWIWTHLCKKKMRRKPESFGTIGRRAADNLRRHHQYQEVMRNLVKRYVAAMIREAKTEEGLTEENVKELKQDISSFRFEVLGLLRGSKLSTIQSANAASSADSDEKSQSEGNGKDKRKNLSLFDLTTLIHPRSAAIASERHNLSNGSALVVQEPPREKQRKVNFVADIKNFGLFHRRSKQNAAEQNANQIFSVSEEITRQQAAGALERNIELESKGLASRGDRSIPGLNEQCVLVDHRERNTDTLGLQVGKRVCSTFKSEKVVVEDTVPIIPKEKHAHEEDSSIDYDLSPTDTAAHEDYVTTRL

Cc1ccc2nc(-c3ccc(NC(=S)NCC(C)(C)CN(C)C)cc3)sc2c1
IC50 (Vero [1]): 15.4 µM (active)
IC50 (HEK293): > 67.5 µM (inactive)
IC50 [2]: > 67.5 µM (inactive)

CC(C)c1cc(=O)oc2c3c4c(cc12)CCCN4CCC3
AC50 (CAAX prenyl protease 1): 4 µM (active)
AC50 (CAAX prenyl protease 2): > 100 µM (inactive)
AC50 (Trypsin): 24.1 µM (active)

Cc1ccc(P(=S)(c2ccc(C)o2)N2CCOCC2)o1
AC50 [3]: 78.2 µM (active)
AC50 [4]: > 195 µM (inactive)

CN1/C(=C/C(=S)NC(=O)C2(C)CC2(Cl)Cl)C(C)(C)c2ccccc21 (centres undefined)
EC50 [5]: > 60 µM (not active)
EC50 [6]: 3.4 µM (active)
IC50 [7]: 0.851 µM (active)
IC50 [8]: 2.5 µM (active)

Cn1c(C(=O)N2CCCC(C(=O)NCCCSC3CCCCC3)C2)cc2sccc21 (centres undefined)
AC50 [3]: 21.6 µM (active)
AC50 [4]: 5.7 µM (active)

O=C(O)[C@@H](O)c1ccccc1
IC50 [9]: > 100 µM (not active)
IC50 [10]: > 100 µM (inactive)
IC50 [11]: > 100 µM (inactive)
IC50 [12]: > 100 µM (inactive)
IC50 [13]: > 100 µM (not active)
IC50 [14]: > 100 µM (not active)

COc1c(Cl)cc(Cl)cc1/C=C/C(=O)c1ccc(NC(=O)c2cccs2)cc1
IC50 [7]: 1.35 µM (active)
IC50 [8]: 2.56 µM (active)
AC50 [4]: 1.12 µM (active)

C=CCOc1c(Cl)cc(CNc2ccc3[nH]c(O)nc3c2)cc1OC
IC50 [15]: > 80 µM (inactive)

C=C1c2cccc(O)c2C(=O)C2=C(O)[C@]3(O)C(=O)C(C(N)=O)=C(O)[C@@H](N(C)C)[C@@H]3[C@@H](O)[C@H]12 [METHACYCLINE HYDROCHLORIDE]
AC50 (Escherichia coli [16]): 29.5 µM (active)
AC50 (Escherichia coli [17]): 0.707 µM (active)
EC50 (Streptococcus): 0.109 µM (active)
IC50 [18]: 66.8 µM (active)
IC50 [19]: > 122 µM (inactive)
IC50 [20]: > 122 µM (inactive)
EC50 [21]: > 100 µM (active)
IC50 (NS3): > 109 µM (not active)
EC50 [22]: 0.099 µM (active)

C/C=C(/C)C(=O)Nc1cccc(C2=NOC3(C2)C[C@H](C(N)=O)N(C(=O)c2ccc(Cl)cc2)C3)c1 (some centres undefined)
AC50 (Escherichia coli [17]): 48 µM (active)

Cc1ccc(-c2[nH]nc3c2C(c2ccccc2)N(c2ccc(C(=O)O)cc2)C3=O)cc1 (centres undefined)
AC50 (Escherichia coli [16]): 35.3 µM (active)

COc1ccc(C(=O)NC(=S)NNC(=O)c2cccc(C)c2)cc1
IC50 (Vero [1]): 23.7 µM (active)
CC50 (Vero [23]): > 25 µM (active)
IC50 [24]: 75.7 µM (inactive)
EC50 [25]: 3.35 µM (active)
